Laboratory results from patent US7300794B2, “Accelerated culture system for intestinal epithelial cell monolayers” (Supernus Pharmaceuticals, Inc., priority 2003, dated 2007).
Where two headings read alike, the source gives them in different places. Marks after values point to notes of the source that are not given here.

Columns and labels:
in vitro = conditions: human; for Papp A→B: Caco-2, pH 7.4
Description: (§1) A method of using the medium also is part of the present invention. The following description is representative of how this would be done. Caco-2 cells (available from ATCC, Manassas, Va.) are resuspended in the HTB-10 medium and seeded on 3 μm polycarbonate 6-well Transwell® cell culture inserts (diameter 24.5 mm, Corning Costar) at a density of about 0.2×10^6 cells/cm^2. The seeding of the cells was performed on dry filters by placing 1.5 mL of the cell suspension on the apical side first, followed by addition of 2.5 mL of HTB-10 medium to the baso-lateral side.
(§2) To induce cell polarity, the volume of the medium on the apical side was decreased from 1.5 ml to 0.5 mL 48 hours post seeding, and the cells were fed primarily from the baso-lateral side. After the switch, the medium was changed every 24 hr for a total incubation period of 4 days.
(§3) The differentiation status and the monolayer integrity were monitored by measurements of transepithelial electrical resistance (TEER) and by determination of permeability of mannitol. […] The accelerated Caco-2 system was also evaluated through a validation process that was based on FDA guidelines for the Biopharmaceuticals Classification System (BCS). In that process, Caco-2 cell permeability coefficients were determined for 26 structurally diverse compounds that were then rank-ordered according to the fraction absorbed in humans. The transport studies were conducted as follows. The donor solution of the drug was placed on the apical side of a sample filter (1.5 mL) and the buffer solution (HBSS, pH 7.4) was placed on the baso-lateral side (2.5 mL). The plates were incubated at 37° C. on a shaker for 1-3 hr. Samples were collected at the designated time points and analyzed by either HPLC (uv)or radiometry (for radioactive compounds).

[1] = fraction absorbed in humans, reported in the literature; cited from earlier work
Caco-2 monolayer [2] = conditions: cited from earlier work
Caco-2 monolayer [3] = assay: in vitro
Description: as §1, §2, §3

[4] = BCS validation set, compounds rank-ordered according to fraction absorbed in humans

Compound | Papp A→B (in vitro) [×10⁻⁶ cm/s] | % fa in humans [1] | Permeability class (Caco-2 monolayer [2]; [4]) | other results
Nc1nc2c(ncn2COCCO)c(=O)[nH]1 [Acyclovir] | 3.8 |  |  | 
CC1(C)S[C@@H]2[C@H](NC(=O)[C@H](N)c3ccc(O)cc3)C(=O)N2[C@H]1C(=O)O [Amoxicillin] | 0.02 | 94** % | Low | 
Cc1cc(=O)n(-c2ccccc2)n1C [Antipyrine] |  | 97-100% |  | 
CC(C)NCC(O)COc1ccc(CC(N)=O)cc1 (stereo not drawn) [Atenolol] |  | 50-54% |  | 
NC(=O)N1c2ccccc2C=Cc2ccccc21 [Carbamazepine] | 84.6 | 100% | High | 
NC(N)=Nc1nc(CSCCC(N)=NS(N)(=O)=O)cs1 [Famotidine] | 1.36 | 38% | Low | 
CC(C)n1c(/C=C/C(O)CC(O)CC(=O)O)c(-c2ccc(F)cc2)c2ccccc21 (stereo not drawn) [Fluvastatin] | 10.8 |  | High | 
NS(=O)(=O)c1cc(C(=O)O)c(NCc2ccco2)cc1Cl [Furosemide] |  | 61% |  | 
NS(=O)(=O)c1cc2c(cc1Cl)NCNS2(=O)=O [Hydrochlorthiazide] | 6.9 | 65-72% |  | 
CC(C(=O)O)c1cccc(C(=O)c2ccccc2)c1 (stereo not drawn) [Ketoprofen] | 48.6 |  | High | 
C[C@](N)(Cc1ccc(O)c(O)c1)C(=O)O [L-alpha-methyldopa] |  | 44** % |  | Permeability class (Caco-2 monolayer [2]; Caco-2): Low; [PM × 10^−6] cm/sec (Caco-2 monolayer [3]; human, Caco-2, pH 7.4): 5.7 +/− 0.5 × 10^−6 cm/sec
OC[C@@H](O)[C@@H](O)[C@H](O)[C@H](O)CO [Mannitol] | 3 | 16-26% | Low | Papp (in vitro; Caco-2): 0.7 to 6.3 ×10⁻⁶ cm/s
CN(Cc1cnc2nc(N)nc(N)c2n1)c1ccc(C(=O)N[C@@H](CCC(=O)O)C(=O)O)cc1 [Methotraxate] |  | 20-100** % | Low | [PM × 10^−6] cm/sec (Caco-2 monolayer [3]; 4-day Caco-2 in HTB-10, donor apical, HBSS pH 7.4, 37° C., 1-3 hr, donor concentration per Table 1): 4.2 +/− 0.7 × 10^−6 cm/sec
COCCc1ccc(OCC(O)CNC(C)C)cc1 (stereo not drawn) [Metoprolol] | 43.6 |  | High | 
COc1ccc2cc([C@H](C)C(=O)O)ccc2c1 [Naproxen] |  | 94-100% |  | 
CC(C)NCC(O)COc1cccc2ccccc12 (stereo not drawn) [Propranolol] | 19.3 |  | High | 
CNC(=C[N+](=O)[O-])NCCSCc1ccc(CN(C)C)o1 [Ranitidine] | 2.2 | 50-61% | Medium | 
CC(C)(C)NCC(O)c1cc(O)cc(O)c1 (stereo not drawn) [Terbutalin] | 5.54 | 50-73% | Medium | 
C[C@]12CC[C@H]3[C@@H](CCC4=CC(=O)CC[C@@]43C)[C@@H]1CC[C@@H]2O [Testosterone] |  | 100% |  | 
Cn1c(=O)c2[nH]cnc2n(C)c1=O [Theophylline] |  | 96% |  | 
CC(C)(C)NC[C@H](O)COc1nsnc1N1CCOCC1 [Timolol] | 25.4 | 72-75% | Medium | 
PEG-400 |  |  |  | [PM × 10^−6] cm/sec (Caco-2 monolayer [3]; Caco-2, pH 7.4): 1.1 +/− 0.1 × 10^−6 cm/sec
PEG-900 |  |  |  | [PM × 10^−6] cm/sec (Caco-2 monolayer [3]; Caco-2, pH 7.4): 0.7 +/− 0.1 × 10^−6 cm/sec
PEG-4000 |  |  |  | [PM × 10^−6] cm/sec (Caco-2 monolayer [3]; Caco-2, pH 7.4): 0.6 +/− 0.1 × 10^−6 cm/sec
